In patent US20240307416A1, “FILM-FORMING COMPOSITIONS COMPRISING SALICYLIC ACID AND METHODS OF USE” (3M INNOVATIVE PROPERTIES COMPANY, priority 2021, published 2024):

Experiment: Dissolution of salicylic acid in film-forming gel components
Type: physicochemical

Structure (SMILES): O=C(O)c1ccccc1O [salicylic acid]
- Solubility of salicylic acid in the silicate tackifying resin and/or the volatile solvent: does not appear to be readily soluble
- Dissolution of salicylic acid in the formulation of U.S. Pat. No. 10,603,405 (SPOx added at the end of the manufacture): did not appear dissolve and remained a solid particulate
